The results in this text go back to patent US8217189B2, “Chromenone potassium channel blockers and uses thereof” (Bionomics Limited, priority 2006, dated 2012).

T1 sequence (P22001 whole entry): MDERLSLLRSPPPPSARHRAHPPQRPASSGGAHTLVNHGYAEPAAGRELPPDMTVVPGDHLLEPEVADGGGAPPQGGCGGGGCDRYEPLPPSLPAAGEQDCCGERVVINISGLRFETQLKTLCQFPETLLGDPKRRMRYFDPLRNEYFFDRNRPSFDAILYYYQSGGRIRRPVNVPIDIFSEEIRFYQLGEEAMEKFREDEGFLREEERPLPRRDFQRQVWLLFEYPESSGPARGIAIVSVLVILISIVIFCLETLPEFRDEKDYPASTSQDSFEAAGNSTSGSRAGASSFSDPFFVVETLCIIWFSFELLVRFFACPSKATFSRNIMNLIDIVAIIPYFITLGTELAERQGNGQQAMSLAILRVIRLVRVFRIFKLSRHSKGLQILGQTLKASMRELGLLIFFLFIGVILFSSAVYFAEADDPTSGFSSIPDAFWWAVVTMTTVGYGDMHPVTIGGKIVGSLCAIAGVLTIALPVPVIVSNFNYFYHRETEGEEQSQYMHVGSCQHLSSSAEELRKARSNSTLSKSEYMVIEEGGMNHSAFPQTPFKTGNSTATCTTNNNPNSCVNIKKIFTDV

The assay addresses T1, human Kv1.3 ion channel (Homo sapiens, UniProt P22001).
T1 construct: Human Jurkat cells (which endogenously express hKv1.3) were used in place of rat L929 cells; endogenous in cells; host or cells: human Jurkat cells
The experiment in a line: Inhibition of Kv1.3 currents, planar patch clamp in human Jurkat cells. It counts as cell-based. The settings on record: Jurkat cells endogenously expressing hKv1.3, averaged dose response data from 3 or more cells. On the procedure: Potency of compounds to inhibit the human Kv1.3 ion channel were determined as follows:
EC50 values for inhibition of Kv1.3 currents were determined by the method according to Schmitz et al (2005) Molecular Pharmacology 68, 1254-1270 with the following differences:
1. Human Jurkat cells (which endogenously express hKv1.3) were used in place of rat L929 cells.
2. All electrophysiology was performed using planar patch clamp (Port-A-Patch, Nanion Technologies Gmbh, Munich) in contrast to conventional patch clamp.
3. EC50 values shown were determined from averaged dose response data obtained from 3 or more cells.
Take `CSCc1cc(=O)c2c(C)c3ccoc3c(OCCCc3ccccc3)c2o1` [1 c)]: the EC50 came out at 30 nM.

`Cc1c2ccoc2c(OCCCc2ccc(F)cc2)c2oc(CN(C)C)cc(=O)c12` [6 c)] came in with an EC50 of 28 nM.

In the case of `COc1c2ccoc2c(OCCCc2ccccc2)c2oc(CN(C)C)cc(=O)c12` [7 c)], a half-maximal effect (EC50) was put at 270 nM.

Take `Cc1c2ccoc2c(OCC[C@@H](C)c2ccccc2)c2oc(CN(C)C)cc(=O)c12` [8 d)]: the EC50 was 14 nM. Regarding `Cc1c2ccoc2c(OCCCc2ccccc2)c2oc(CN(C)C)cc(=O)c12` [Example 2, 7-Dimethylaminomethyl-4-methyl-9-(3-phenylpropoxy)furo[3,2-g]chromen-5-one], the EC50 is 29 nM. Turning to `Cc1c2ccoc2c(OCCCc2ccccc2)c2oc(CN3CCOCC3)cc(=O)c12` [Example 3, 4-Methyl-7-(morpholin-4-ylmethyl)-9-(3-phenylpropoxy)furo[3,2-g]chromen-5-one], the EC50 came out at 190 nM. As to `CN(C)Cc1cc(=O)c2c(OCCCCOc3ccccc3)c3ccoc3cc2o1` [Example 5, 7-Dimethylaminomethyl-4-(4-phenoxybutoxy)-furo[3,2-g]chromen-5-one], the EC50 is 1420 nM. With `Cc1c2ccoc2c(OCCCc2ccccc2)c2oc(CS(C)(=O)=O)cc(=O)c12` [Example 9, 7-Methanesulfonylmethyl-4-methyl-9-(phenyl-propoxy)-furo[3,2-g]chromen-5-one] the figure was 200 nM.

One may read the EC50 as the concentration needed to bring the measured effect to its halfway point.
